According to patent US9389237B2, “Methods for inhibiting the development of Huntington's disease” (priority 2003, dated 2016):
“And” between values parts separate entries of the source, which are not always exact repeats. Equal values may be shown once. “Also recorded” adds a separate entry of the source.

Assays:
[1] = system: HD transgenic mice (HDexon 1 + 159-161 CAG repeat units); experiment: Beam walking (raised beam) of treated HD transgenic mice; format: in vivo; details: for ability to transverse the ½ in beam in the allotted time / improvement over the course of the study (continued ability to cross the ½ in^2 beam after controls were unable): HD mice, 150 seconds allotted; for ability to transverse the ½ in beam in the allotted time: versus untreated control liter mates; for improvement over the course of the study (continued ability to cross the ½ in^2 beam after controls were unable): two weeks after control animals failed; for time after untreated liter mates were unable to perform the trained task, with retained cognitive decision making and motor function: HD transgenic mice, beam task
Description: (§1) 30 HD mice were obtained from the Jackson Laboratory, Bar Harbor, Me. The group consists of a 15 hemizygous female strain #2810 and 15 hemizygous males strain #2810 (containing the transgene HDexon 1+159-161 CAG repeat units). These mice were grouped as follows: • All mice received ear clips as identification, noting hair color. • 1-15 were males and 16-29 were females mouse #30 arrived dead. • Male mice: 1-4 were control animals receiving no treatment, 5,6,7,11 were grouped as E1 8, 9, 10 and 12 were grouped as E2. 13, 14 and 15 were grouped as T1, receiving 100 ug/ml testosterone weekly. • Female mice: 16-19 were control animals receiving no treatment. 20, 21, 22, 26 were grouped as E3, 23, 24, 25, 27 were grouped as E4. 28 and 29 were grouped as T2, receiving 100 ug/ml testosterone.
Utilizing the raised beam, mice were assessed for their ability to transverse a graded series of narrow beams to reach a safety platform. The beams consisted of long strips of wood with a 12 mm or 5 mm square cross section. The beams were placed horizontally, 50 cm above each bench surface, with one end mounted on a narrow support and the other end attached to an enclosed box to which the animal could escape. Two inches of dense foam was placed under the test area to protect the animals from fall injury. Training took place in a 3 or 4 day period, where the mice were trained two to four times in a four day period using the 12 mm square beam. Once they were trained to walk the beam (i.e., traversing the 12 mm square beam in less than 20 seconds), they received two consecutive trails on each of the square beam and each of the round beams, in each case progressing from the widest to the narrowest beam. Mice were afforded 150 seconds to traverse each beam. The number of times the mice slipped off of the beam was recorded for each trial. The mean score was used for each trial.

[2] = system: HD transgenic mice (HDexon 1 + 159-161 CAG repeat units); experiment: Brain weight at week 12 of treated HD transgenic mice; format: in vivo; details: for Brain weight at week 12: single animals
Description: as §1, with “were males and 16-29 were females mouse #30 arrived dead. • Male mice: 1-4 were control animals” left out, “[…],” for “5,6,7,11 were grouped as E1 8,”, “13, 14 and 15 were grouped as T1, receiving 100 ug/ml testosterone weekly. • Female mice: 16-19 were control animals receiving no treatment.” left out
After euthanized, all brains of all mice were surgically removed and placed in a solution of formaldehyde and weighed on a scale. The weights were recorded.

[3] = Serum hormone level (ES/TT) in treated HD mice; details: subcutaneous injection as emulsion with Freund's incomplete adjuvant
Protocol: Hormone tests of serum were performed to verify the blood levels of estradiol or testosterone. The mice (controls=no treatment) were tested against liter mates receiving either (E1 and E3 100 ug/ml weekly) or (E2 and E4 200 ug/ml injection weekly).
Blood specimens for estradiol assay using Elisa methodology was obtained during the study.
Stock solution of estradiol and testosterone were diluted with water and mixed with Freund's incomplete adjuvant. This was mixed continuously for 1 minute and either 100 ul (E1 and E3) or 200 ul (E2 and E4) were injected subcutaneously. […] Animals in the E1 and E3 groups were targeted to receive 100-300 pg/ml estrogen and groups E2 and E4 were targeted to receive 400-800 pg/ml of estrogen. Animals in T1 and T2 grouping were targeted to receive 100 pg/ml testosterone.

[4] = system: HD transgenic mice (HDexon 1 + 159-161 CAG repeat units); experiment: Body weight of hormone treated HD transgenic mice; format: in vivo; details: for Last wt Week 12 / Peak wt Weeks 8/9 / % change in weight / Change in Grams / % change: single animals; for Average % change: group average weight loss; for % change in weight / Change in Grams / % change: peak to week 12
Description: as §1, with “13, 14 and 15 were grouped as T1, receiving 100 ug/ml testosterone weekly. • Female mice: 16-19 were control animals receiving no treatment. 20, 21, 22, 26 were grouped as E3, 23, 24, 25, 27 were grouped as E4.” left out
Body Weight: All animals were weighed on a scale weekly throughout the study. All weights were recorded.

[5] = system: mutant form of huntingtin; experiment: In vitro estradiol binding study, overall conclusion; details: conclusion from Table 2
Protocol: These pure proteins were then used in the following binding protocol. Oestradiol-6-(0-carboxymethyl)oximino-(2-[125I] iodohistamine was used as the estradiol source. Buffer B preferably comprises: 250 mM tris, 150 mM NaCl, and a Dextran Charcoal solution comprising 0.05% Dextran coated charcoal in buffer B (sigma Cat#6197). About 0.5 ml of buffer B was preferably used per reaction. A total of 5 ml of Buffer B was aliquoted into a glass borosilicate tube (Fisher Cat#14-961-26) and 10 μL of Oestradiol (1125) was added containing approximately 2,000,000 cpm. About 0.5 ml of this solution was then distributed into eight labeled glass tubes (cat #14-961-260). The entire tube #1's 500 μL was counted. Tube #2 through #8 were treated in the following manner:
Tubes #2-#8 were incubated for 1 hour at room temperature, placed on ice for ten minutes, and 200 μL of the Dextran charcoal solution in buffer B was added. These tubes were then placed on ice ten minutes and then centrifuged 15 minutes at 2200 rpm in a Sorvall RC-3 refrigerated centrifuge with swinging bucket rotor (Sorvall HL-8) at 4 degrees. The entire 700 μL supernatant was removed and counted using Genesys multi-well gamma counter (Laboratories Technology, Inc.). The results are summarized below: […]

[6] = female HD mice, group E1, 100 ul ES dose weekly
[7] = female HD mice, group E2, 200 ul ES dose weekly
[8] = male HD mice, group E3, 100 ul ES dose weekly
[9] = male HD mice, group E4, 200 ul ES dose weekly
[10] = female HD mice, group E1, 100 ul ES dose weekly, target blood level 100-300 pg/ml
[11] = female HD mice, group E2, 200 ul ES dose weekly, target blood level 400-800 pg/ml
[12] = male HD mice, group E3, 100 ul ES dose weekly, target blood level 100-300 pg/ml
[13] = male HD mice, group E4, 200 ul ES dose weekly, target blood level 400-800 pg/ml
[14] = female HD mice, group T1, 100 ul T dose weekly
[15] = male HD mice, group T2, 100 ul T dose weekly
[16] = female HD mice, group T1, 100 ul T dose weekly, target blood level 50-100 pg/ml
[17] = male HD mice, group T2, 100 ul T dose weekly, target blood level 50-100 pg/ml

SMILES: CC12CCC3c4ccc(O)cc4CCC3C1CC[C@@H]2OC(=O)CCC1CCCC1 (stereo partly drawn) [estradiol cypionate, estradiol 17-cyclopentanepropionate]
- ability to transverse the ½ in beam in the allotted time [1]: significant improvement; also recorded: able to complete the traversing of the beam in the allotted time; also recorded: significant increase in their ability to cross the beam within the time allotment
- improvement over the course of the study (continued ability to cross the ½ in^2 beam after controls were unable) [1]: 16.6%
- time after untreated liter mates were unable to perform the trained task, with retained cognitive decision making and motor function [1]: 14 days
- Brain weight at week 12 [2, 6]: 0.33 g and 0.36 g and 0.34 g and 0.30 g
- Brain weight at week 12 [2, 7]: 0.33 g and 0.37 g (2×)
- Brain weight at week 12 [2, 8]: 0.37 g (2×) and 0.40 g (2×)
- Brain weight at week 12 [2, 9]: 0.39 g and 0.34 g and 0.35 g
- increase in brain weight ([2]; on average, lower level (100-300 Pg/ml) of estrogen treatment versus untreated): ≤ 10%
- release after injection [3]: continuous over six days
- Last wt Week 12 [4, 10]: 21.7 g and 16.9 g and 18.9 g and 18.2 g
- Peak wt Weeks 8/9 [4, 10]: 24.0 g and 19.9 g and 21.2 g and 25.0 g
- Average % change ([4]; female HD mice, group E1, 100 ul ES dose weekly, controls 21.7%): 15.5%
- % change in weight [4, 6]: −9.0% and −15.0% and −10.8% and −27.2%
- Change in Grams [4, 6]: −2.3 g (2×) and −3.0 g and −6.8 g
- Last wt Week 12 [4, 11]: 20.5 g and 17.6 g and 13.5 g and 20.7 g
- Peak wt Weeks 8/9 [4, 11]: 21.5 g and 21.8 g and 19.8 g and 22.5 g
- Average % change ([4]; female HD mice, group E2, 200 ul ES dose weekly, controls 21.7%): 15.7%
- % change in weight [4, 7]: −4.6% and −19.2% and −31.0% and −8.0%
- Change in Grams [4, 7]: -1.0 g and -4.2 g and -6.3 g and -1.8 g
- Last wt Week 12 [4, 12]: 19.6 g and 22.6 g and 21.7 g and 23.5 g
- Peak wt Weeks 8/9 [4, 12]: 26.2 g and 26.7 g and 24.8 g and 26.4 g
- Average % change ([4]; male HD mice, group E3, 100 ul ES dose weekly, controls 27.2%): 15.9%
- % change [4, 8]: −25.0% and −15.3% and −12.5% and −10.9%
- Change in Grams [4, 8]: -6.6 g and -4.1 g and -3.1 g and -2.9 g
- Last wt Week 12 [4, 13]: 22.9 g and 19.6 g and 20.2 g and 19.4 g
- Peak wt Weeks 8/9 [4, 13]: 26.2 g and 24.6 g and 23.7 g and 22.1 g
- Average % change ([4]; male HD mice, group E4, 200 ul ES dose weekly, controls 27.2%): 14.9%
- % change [4, 9]: −12.5% and −20.3% and −14.7% and −12.2%
- Change in Grams [4, 9]: -3.3 g and -5.0 g and -3.5 g and -2.7 g

SMILES: C[C@]12CC[C@@H]3c4ccc(O)cc4CC[C@H]3[C@@H]1CC[C@@H]2O [estradiol, 1,3,5(10)-estratriene-3,17beta-diol]
- affinity for mutant huntingtin [5]: an affinity for estradiol has been demonstrated

SMILES: CC12CCC(=O)C=C1CCC1[C@@H]2CCC2(C)[C@@H](OC(=O)CCC3CCCC3)CC[C@@H]12 (stereo partly drawn) [testosterone cypionate, androst-4-en-3-one,17-(3-cyclopentyl-1-oxopropoxy)-, (17β)-]
- ability to transverse the ½ in beam in the allotted time [1]: significant improvement
- improvement over the course of the study (continued ability to cross the ½ in^2 beam after controls were unable) [1]: 16.6%
- time after untreated liter mates were unable to perform the trained task, with retained cognitive decision making and motor function [1]: 14 days
- Brain weight at week 12 [2, 14]: 0.31 g
- Brain weight at week 12 [2, 15]: 0.31 g and 0.37 g and 0.33 g
- Last wt Week 12 [4, 16]: 17.4 g and 14.5 g
- Peak wt Weeks 8/9 [4, 16]: 27.6 g and 21.6 g
- Average % change ([4]; female HD mice, group T1, 100 ul T dose weekly, controls 21.7%): 34.8%
- % change in weight [4, 14]: −36.9% and −32.8%
- Change in Grams [4, 14]: -10.2 g and -7.1 g
- Last wt Week 12 [4, 17]: 17.1 g and 25.1 g and 19.0 g
- Peak wt Weeks 8/9 [4, 17]: 23.4 g and 28.0 g and 27.0 g
- Average % change ([4]; male HD mice, group T2, 100 ul T dose weekly, controls 27.2%): 22.2%
- % change [4, 15]: −26.9% and −10.3% and −29.6%
- Change in Grams [4, 15]: -6.3 g and -2.9 g and -8.0 g
